These are literature values, as cited in article PMC7179450, “Primary Human Hepatocytes, But not HepG2 or Balb/c 3T3 Cells, Efficiently Metabolize Salinomycin and Are Resistant to Its Cytotoxicity” (Molecules, 2020).

Like-named read-outs stand apart in the source and are kept apart here.

For this data set, the system named is all tested cell models. Also on record: method as in PMID 30012479. The note with it: cited from earlier work.

With `C[C@]12C=CC(=O)C=C1CC[C@@H]1[C@@H]2[C@@H](O)C[C@@]2(C)[C@H]1CC[C@]2(O)C(=O)CO` [prednisolone], the “cytotoxicity at tested concentrations” value (prednisolone 1 µg/mL) was “non-cytotoxic”. In the case of `C=C[C@]1(C)C[C@@H](OC(=O)CSCCN(CC)CC)[C@]2(C)[C@H](C)CC[C@]3(CCC(=O)[C@H]32)[C@@H](C)[C@@H]1O` [tiamulin], the “cytotoxicity at tested concentrations” value (tiamulin 1 or 10 µg/mL) is “non-cytotoxic”.
